# Key:
# wild-type HDAC1 = wild-type HDAC1 (Homo sapiens, UniProt Q13547); assay: Acetate inhibition assay; type: biochemical; details: at least three independent trials, standard error
# HDAC1 F205Y = HDAC1 F205Y (Homo sapiens, UniProt Q13547, F205Y); assay: Acetate inhibition assay; type: biochemical
# HDAC1 Y23A = HDAC1 Y23A (Homo sapiens, UniProt Q13547, Y23A); assay: Acetate inhibition assay; type: biochemical
# HDAC1 Y24A = HDAC1 Y24A (Homo sapiens, UniProt Q13547, Y24A); assay: Acetate inhibition assay; type: biochemical
# HDAC1 R34A = HDAC1 R34A (Homo sapiens, UniProt Q13547, R34A); assay: Acetate inhibition assay; type: biochemical
# HDAC1 R36A = HDAC1 R36A (Homo sapiens, UniProt Q13547, R36A); assay: Acetate inhibition assay; type: biochemical
# HDAC1 C151A = HDAC1 C151A (Homo sapiens, UniProt Q13547, C151A); assay: Acetate inhibition assay; type: biochemical
# [1] = test system: recombinant HDAC8 wild type; details: acetate inhibition; cited from earlier work
# HDAC8 R37A = HDAC8 R37A vs HDAC8 wild type; cited from earlier work
# Chain of HDAC1 Y24A (Q13547 whole entry Y24A): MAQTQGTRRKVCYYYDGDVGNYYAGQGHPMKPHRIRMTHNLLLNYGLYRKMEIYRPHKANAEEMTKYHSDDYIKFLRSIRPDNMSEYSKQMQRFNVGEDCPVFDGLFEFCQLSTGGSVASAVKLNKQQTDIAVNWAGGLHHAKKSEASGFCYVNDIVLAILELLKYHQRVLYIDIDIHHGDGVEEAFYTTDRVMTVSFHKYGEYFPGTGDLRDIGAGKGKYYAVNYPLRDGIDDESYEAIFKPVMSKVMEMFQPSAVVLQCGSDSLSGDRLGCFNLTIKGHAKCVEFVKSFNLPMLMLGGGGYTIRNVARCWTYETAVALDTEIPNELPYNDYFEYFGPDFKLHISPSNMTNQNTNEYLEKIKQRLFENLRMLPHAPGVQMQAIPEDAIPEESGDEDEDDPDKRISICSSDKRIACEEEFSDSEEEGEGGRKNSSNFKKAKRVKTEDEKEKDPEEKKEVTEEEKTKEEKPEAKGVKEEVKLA
# Chain of HDAC1 Y23A (Q13547 whole entry Y23A): as the sequence (Q13547 whole entry Y24A) above, with Y23A, A24Y counted along it
# Chain of HDAC1 R36A (Q13547 whole entry R36A): as the sequence (Q13547 whole entry Y24A) above, with A24Y, R36A counted along it
# Chain of HDAC1 C151A (Q13547 whole entry C151A): as the sequence (Q13547 whole entry Y24A) above, with A24Y, C151A counted along it
# Chain of HDAC1 R34A (Q13547 whole entry R34A): as the sequence (Q13547 whole entry Y24A) above, with A24Y, R34A counted along it
# Chain of HDAC1 F205Y (Q13547 whole entry F205Y): as the sequence (Q13547 whole entry Y24A) above, with A24Y, F205Y counted along it
# Chain of wild-type HDAC1 (Q13547 whole entry): as the sequence (Q13547 whole entry Y24A) above, with A24Y counted along it
structure (smiles),measurement,setting,value
"CC(=O)[O-].[Na+] [acetate, sodium acetate]",IC50,wild-type HDAC1,7.2 ± 0.54 mM
same,IC50,HDAC1 F205Y,8 ± 1.5 mM
same,fold reduction in acetate inhibition compared to the wild type,HDAC1 Y23A; HDAC1 Y23A vs wild type,roughly 3 fold
same,IC50,"HDAC1 Y23A; acetate inhibition, HDAC1 Y23A",21 ± 1.5 mM
same,fold reduction in acetate inhibition compared to the wild type,HDAC1 Y24A; HDAC1 Y24A vs wild type,roughly 3 fold
same,IC50,"HDAC1 Y24A; acetate inhibition, HDAC1 Y24A",19 ± 1.1 mM
same,fold reduction in acetate inhibition compared to the wild type,HDAC1 R34A; HDAC1 R34A vs wild type,roughly 3 fold
same,IC50,"HDAC1 R34A; acetate inhibition, HDAC1 R34A",21 ± 1.6 mM
same,fold reduction in acetate inhibition compared to the wild type,HDAC1 R36A; HDAC1 R36A vs wild type,roughly 2 fold
same,IC50,"HDAC1 R36A; acetate inhibition, HDAC1 R36A",16 ± 1.3 mM
same,fold reduction in acetate inhibition compared to the wild type,HDAC1 C151A; HDAC1 C151A vs wild type,roughly 2 fold
same,IC50,"HDAC1 C151A; acetate inhibition, HDAC1 C151A",13 ± 1.1 mM
same,IC50,[1],2.5 mM
same,fold reduction of acetate inhibition compared to wild type,HDAC8 R37A,160 fold
